Measurements taken from US10889569B2, “Condensed ring group azacyclobutyl triazole derivative, preparation method therefor and use thereof in medicine” (Jiangsu Hengrui Medicine Co., Ltd., priority 2016, dated 2021).

What was measured:
human V1aR = human V1aR (Homo sapiens (Human), UniProt P37288); test: Inhibition activity on human V1aR (Fluo-4 calcium assay, HEK293/human V1aR stably transfected cells); type: cell-based; conditions: vasopressin 3 nM
Procedure, shortened: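 Stable HEK293/human V1aR cells, 25,000 cells/well, loaded with Fluo-4 for 30 minutes at 37° C. then 10 minutes room temperature; compounds (formulated at 10^1–10^6 nM) added 10 minutes before 3 nM vasopressin. Calcium fluorescence read immediately at 494/516; IC50 from concentration–signal curves.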

OTR = OTR (Rattus norvegicus (Rat), UniProt P70536); test: Oxytocin-induced rat uterine contraction model; type: in vivo; conditions: female SD rats, 1 μg/kg OT i.v.
Sequence of OTR (P70536 whole entry): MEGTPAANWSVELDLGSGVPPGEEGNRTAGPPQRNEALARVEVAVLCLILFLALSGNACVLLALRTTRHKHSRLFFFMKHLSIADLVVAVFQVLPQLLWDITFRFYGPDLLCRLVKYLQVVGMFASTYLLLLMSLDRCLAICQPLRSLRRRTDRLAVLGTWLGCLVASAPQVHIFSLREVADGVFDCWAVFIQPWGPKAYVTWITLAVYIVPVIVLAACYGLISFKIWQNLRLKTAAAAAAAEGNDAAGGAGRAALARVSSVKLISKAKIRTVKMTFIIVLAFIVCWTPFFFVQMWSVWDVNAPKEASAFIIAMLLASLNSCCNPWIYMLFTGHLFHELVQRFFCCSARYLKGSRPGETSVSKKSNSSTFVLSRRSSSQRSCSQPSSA
Procedure: The efficacy of OTR inhibitors (compound 2-10mpk, compound 2-30mpk and compound 2-100mpk) on oxytocin (OT)-induced rat uterine contraction model was evaluated by establishing a rat uterine contraction model.
Compound 2-100mpk: 221.0 mg of compound 2 was weighed, added with 5.40 ml of Cremophor RH40, 2.16 ml of Masine 35-1, 3.24 ml of polyethylene glycol 400 (PEG400) and 1.20 ml of ethanol respectively, and mixed well by ultrasonic vibration;
Compound 2-30mpk: 54.2 mg of compound 2 was weighed, added with 4.50 ml of Cremophor RH40, 1.80 ml of Masine 35-1, 2.70 ml of polyethylene glycol 400 (PEG400) and 1.00 ml of ethanol respectively, and mixed well by ultrasonic vibration;
Compound 2-10mpk: 1 ml of compound 2-100mpk solution was added with 9 ml of solvent (45% of Cremophor RH40, 18% of Masine 35-1, 27% of PEG400 and 10% of ethanol), and mixed well. […]
After completion of the experiment, the area under curve (AUC) of the uterine contraction pressure 5 minutes before and after the administration of the inducing agent was calculated respectively. The efficacy of the test compound was evaluated by calculating the ratio of the difference value in AUC before and after induction to the AUC before induction, and comparing with the difference value of the ratio after administration of the test compound. ΔAUC ratio=(AUC0−AUCT)/AUC0; […]

Sequence of human V1aR (P37288 whole entry): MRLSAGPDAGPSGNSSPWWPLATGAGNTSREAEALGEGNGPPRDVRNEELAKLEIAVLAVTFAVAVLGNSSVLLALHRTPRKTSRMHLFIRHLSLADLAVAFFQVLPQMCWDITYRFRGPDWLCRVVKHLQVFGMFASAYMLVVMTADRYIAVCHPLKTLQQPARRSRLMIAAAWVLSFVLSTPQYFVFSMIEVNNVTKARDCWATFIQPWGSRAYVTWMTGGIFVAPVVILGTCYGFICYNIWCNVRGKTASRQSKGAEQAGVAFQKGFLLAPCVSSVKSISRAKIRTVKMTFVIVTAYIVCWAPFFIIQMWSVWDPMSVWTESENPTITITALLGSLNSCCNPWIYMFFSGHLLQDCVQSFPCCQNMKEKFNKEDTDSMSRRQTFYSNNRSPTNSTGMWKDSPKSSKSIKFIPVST

## COCc1nnc(N2CC(c3cccc4cc(F)ccc34)C2)n1-c1ccc(OC)nc1 [Example 2, 5-(3-(3-(6-Fluoronaphthalen-1-yl)azetidin-1-yl)-5-(methoxymethyl)-4H-1,2,4-triazol-4-yl)-2-methoxypyridine]
Human V1aR
  IC50: 4.5 µM
OTR; 30mpk p.o.
  Efficacy on OT-induced uterine contraction vs solvent control group: can effectively block the downstream function (uterine contraction) of oxytocin receptors mediated by oxytocin
OTR; 100mpk p.o.
  Efficacy on OT-induced uterine contraction vs solvent control group: can effectively block the downstream function (uterine contraction) of oxytocin receptors mediated by oxytocin

## COCc1nnc(N2CC(n3cc(C)c4cc(F)ccc43)C2)n1-c1ccc(OC)nc1 [Example 17, 5-Fluoro-1-(1-(5-(methoxymethyl)-4-(6-methoxypyridin-3-yl)-4H-1,2,4-triazol-3-yl)azetidin-3-yl)-3-methyl-1H-indole]
Human V1aR
  IC50: 4.4 µM
